Legend:
[1] = target: T1, α4β2-nAChR (Homo sapiens, UniProt P17787+P43681); assay: whole-cell patch-clamp recording of nicotine-induced currents, α4β2-nAChR expressed in SH-EP1 cells; format: cell-based; conditions: for effect on α4β2-nAChR mediated currents (peak current response, steady-state component): 0.1 mM of each Magnoliidae compound, FIG. 6A
T1 construct: expressed in transfected cells; host or cells: SH-EP1 human epithelial cell line (nAChR-null)
From the text: (§1) In FIGS. 6-9, whole-cell patch-clamp recording techniques in voltage-clamp mode were used to detect changes in current. Conventional whole-cell current recording coupled with techniques for fast application and removal of agonist (9 channel multi-barrel pipette), were applied in this study. Briefly, cells plated on poly-lysine-coated 35-mm culture dishes were placed on the stage of an inverted microscope (Olympus iX7, Lake Success, N.Y.) and continuously superfused with standard external solution (2 ml/min). Glass microelectrodes (3-5 MΩ resistance between pipette and extracellular solutions) were used to form tight seals (>1 GΩ) on the cell surface until suction was applied to convert to conventional whole-cell recording.
(§2) Both pipette and whole current capacitance were minimized and the series resistance was routinely compensated to 80%. The access resistance before series resistance compensation was between 10-20 MΩ. Data acquisition and analyses were done using Pclamp8 (Axon Instruments), and results were plotted using Origin 5.0 (Microcal, North Hampton, Mass.).
Data usually were fit over the 10-90% period from inward current peak until agonist exposure was terminated (5-10 sec). The experimental data are presented as means±standard errors, and comparisons of different conditions were analyzed for statistical significance using the Student's t-tests. All experiments were performed at room temperature (22±1° C.). A pipette electrode solution comprising TrisPO4dibasic 110 milli-Molar (mM), Trisbase 28 mM, Ethylenediaminetetraacetate (EDTA) 11 mM, Magnesium Chloride (MgCl2) 2 mM, Calcium Chloride (CaCl2) 0.5 mM, and Sodium-Adenosine Triphosphate (Na-ATP) 4 mM, resulting in a pH of 7.3, was used.

[2] = target: T2, D2 receptor (Rattus norvegicus, UniProt P61169); conditions: cited from earlier work
T2 construct: host or cells: normal rats, in vivo
T2 sequence (P61169 whole entry): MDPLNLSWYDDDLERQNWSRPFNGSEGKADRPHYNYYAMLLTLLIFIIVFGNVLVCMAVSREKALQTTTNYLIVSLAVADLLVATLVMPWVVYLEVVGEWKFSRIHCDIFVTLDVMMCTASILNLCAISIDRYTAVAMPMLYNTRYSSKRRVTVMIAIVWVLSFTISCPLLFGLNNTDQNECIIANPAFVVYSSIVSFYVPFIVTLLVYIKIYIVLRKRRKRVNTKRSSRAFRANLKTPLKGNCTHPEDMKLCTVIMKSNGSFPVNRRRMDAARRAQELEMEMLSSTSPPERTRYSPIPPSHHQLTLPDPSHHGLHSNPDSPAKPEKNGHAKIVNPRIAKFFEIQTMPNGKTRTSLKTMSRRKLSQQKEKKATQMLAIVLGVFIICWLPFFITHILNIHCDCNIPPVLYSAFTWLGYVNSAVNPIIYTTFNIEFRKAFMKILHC

[3] = target: T3, D1 receptors (Rattus norvegicus, UniProt P18901); conditions: rats with unilateral nigral lesion (DA receptor super sensitivity in striatum); cited from earlier work
T3 construct: host or cells: rats with unilateral nigral lesion, in vivo (striatum)
T3 sequence (P18901 whole entry): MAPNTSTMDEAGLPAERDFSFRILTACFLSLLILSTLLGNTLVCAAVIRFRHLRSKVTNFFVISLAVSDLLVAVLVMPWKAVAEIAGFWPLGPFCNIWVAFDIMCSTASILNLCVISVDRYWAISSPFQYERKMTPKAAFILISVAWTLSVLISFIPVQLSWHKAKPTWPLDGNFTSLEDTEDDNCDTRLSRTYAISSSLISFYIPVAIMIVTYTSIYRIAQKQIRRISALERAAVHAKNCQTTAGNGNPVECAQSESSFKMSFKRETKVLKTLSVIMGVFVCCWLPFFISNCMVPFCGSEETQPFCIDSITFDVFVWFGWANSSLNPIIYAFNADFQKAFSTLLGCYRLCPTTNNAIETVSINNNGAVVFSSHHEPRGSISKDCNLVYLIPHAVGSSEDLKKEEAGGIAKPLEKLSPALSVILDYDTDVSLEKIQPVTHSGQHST

[4] = target: T4, (Homo sapiens, UniProt P30926+P43681); assay: whole-cell patch-clamp recording of nicotinic responses, α4α4 nAChR subtype; format: cell-based; conditions: THB 0.1 mM; nicotine 1.0 μM; FIG. 6B (2)
T4 construct: expressed in transfected cells; host or cells: SH-EP1 human epithelial cell line
T4 sequence (P43681 27-627): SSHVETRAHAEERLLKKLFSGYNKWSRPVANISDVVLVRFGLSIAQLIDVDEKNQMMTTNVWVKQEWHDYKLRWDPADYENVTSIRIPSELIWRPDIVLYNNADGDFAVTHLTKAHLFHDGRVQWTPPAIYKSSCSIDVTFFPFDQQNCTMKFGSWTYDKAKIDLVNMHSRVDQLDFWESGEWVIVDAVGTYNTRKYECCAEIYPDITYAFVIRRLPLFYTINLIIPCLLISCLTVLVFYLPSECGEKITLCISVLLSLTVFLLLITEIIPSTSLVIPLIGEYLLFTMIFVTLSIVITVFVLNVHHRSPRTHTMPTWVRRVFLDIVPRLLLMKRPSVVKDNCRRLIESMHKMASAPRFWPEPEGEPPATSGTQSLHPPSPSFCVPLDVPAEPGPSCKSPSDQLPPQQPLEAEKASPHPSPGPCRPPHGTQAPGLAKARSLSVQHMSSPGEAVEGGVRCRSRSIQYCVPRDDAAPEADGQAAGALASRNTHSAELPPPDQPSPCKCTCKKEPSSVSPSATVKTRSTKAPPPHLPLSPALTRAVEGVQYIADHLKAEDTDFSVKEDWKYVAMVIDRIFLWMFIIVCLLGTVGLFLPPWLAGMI
T4 sequence (P30926 22-498): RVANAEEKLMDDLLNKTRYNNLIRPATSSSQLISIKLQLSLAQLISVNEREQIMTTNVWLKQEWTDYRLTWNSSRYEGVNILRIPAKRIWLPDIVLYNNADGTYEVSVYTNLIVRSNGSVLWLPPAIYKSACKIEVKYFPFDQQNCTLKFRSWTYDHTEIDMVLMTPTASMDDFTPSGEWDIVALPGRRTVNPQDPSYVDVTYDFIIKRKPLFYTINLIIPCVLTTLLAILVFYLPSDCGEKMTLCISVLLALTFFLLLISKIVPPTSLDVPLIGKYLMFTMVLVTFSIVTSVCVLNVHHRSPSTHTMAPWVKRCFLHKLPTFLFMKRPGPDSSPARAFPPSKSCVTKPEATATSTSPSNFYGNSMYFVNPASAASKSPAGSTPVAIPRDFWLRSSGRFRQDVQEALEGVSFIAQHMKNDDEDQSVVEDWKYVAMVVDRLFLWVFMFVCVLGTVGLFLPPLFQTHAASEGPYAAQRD
From the text: as §1, §2
(§3) Data usually were fit over the 10-90% period from inward current peak until agonist exposure was terminated (5-10 sec). The experimental data are presented as means±standard errors, and comparisons of different conditions were analyzed for statistical significance using the Student's t-tests. […]

[5] = target: T5, α7-nAChRs (Homo sapiens, UniProt P36544); assay: whole-cell patch-clamp recording of nicotinic responses, α7 nAChR subtype; format: cell-based; conditions: THB 0.1 mM; nicotine 1.0 μM; FIG. 6B (3)
T5 construct: expressed in transfected cells; host or cells: SH-EP1 human epithelial cell line (stated generally, not specifically for α7)
T5 sequence (P36544 23-502): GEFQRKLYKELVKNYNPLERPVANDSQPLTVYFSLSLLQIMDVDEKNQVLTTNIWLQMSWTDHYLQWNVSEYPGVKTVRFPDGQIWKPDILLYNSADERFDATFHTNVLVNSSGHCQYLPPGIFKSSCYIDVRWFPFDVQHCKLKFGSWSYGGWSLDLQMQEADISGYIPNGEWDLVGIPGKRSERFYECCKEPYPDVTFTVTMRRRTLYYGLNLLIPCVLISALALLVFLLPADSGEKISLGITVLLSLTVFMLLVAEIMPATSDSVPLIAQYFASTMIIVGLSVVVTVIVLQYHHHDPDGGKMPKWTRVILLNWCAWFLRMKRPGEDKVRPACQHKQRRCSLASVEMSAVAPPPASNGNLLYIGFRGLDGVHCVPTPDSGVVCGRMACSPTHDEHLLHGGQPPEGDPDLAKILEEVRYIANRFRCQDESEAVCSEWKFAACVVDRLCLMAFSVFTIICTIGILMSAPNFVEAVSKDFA
From the text: as §1, §2, §3

[6] = tested on: D1-type and D2-type DA receptor; conditions: cited from earlier work

T1 sequence (P43681 29-627 limits assumed): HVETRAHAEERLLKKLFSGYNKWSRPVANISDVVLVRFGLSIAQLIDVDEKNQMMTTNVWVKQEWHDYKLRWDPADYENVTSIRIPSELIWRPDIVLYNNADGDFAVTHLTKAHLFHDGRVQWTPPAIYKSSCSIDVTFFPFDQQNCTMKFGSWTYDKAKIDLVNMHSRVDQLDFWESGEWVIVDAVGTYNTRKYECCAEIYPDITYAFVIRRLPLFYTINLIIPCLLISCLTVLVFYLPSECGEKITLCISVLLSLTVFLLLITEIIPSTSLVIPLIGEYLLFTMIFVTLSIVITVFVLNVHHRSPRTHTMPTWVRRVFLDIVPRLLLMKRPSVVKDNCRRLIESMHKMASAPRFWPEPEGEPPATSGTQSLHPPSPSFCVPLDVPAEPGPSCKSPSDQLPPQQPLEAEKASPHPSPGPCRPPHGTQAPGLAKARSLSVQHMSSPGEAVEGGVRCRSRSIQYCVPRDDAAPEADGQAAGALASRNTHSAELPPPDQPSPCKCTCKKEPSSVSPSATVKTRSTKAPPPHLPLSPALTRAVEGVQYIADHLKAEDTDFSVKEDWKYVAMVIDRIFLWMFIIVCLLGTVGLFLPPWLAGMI
T1 sequence (P17787 26-502): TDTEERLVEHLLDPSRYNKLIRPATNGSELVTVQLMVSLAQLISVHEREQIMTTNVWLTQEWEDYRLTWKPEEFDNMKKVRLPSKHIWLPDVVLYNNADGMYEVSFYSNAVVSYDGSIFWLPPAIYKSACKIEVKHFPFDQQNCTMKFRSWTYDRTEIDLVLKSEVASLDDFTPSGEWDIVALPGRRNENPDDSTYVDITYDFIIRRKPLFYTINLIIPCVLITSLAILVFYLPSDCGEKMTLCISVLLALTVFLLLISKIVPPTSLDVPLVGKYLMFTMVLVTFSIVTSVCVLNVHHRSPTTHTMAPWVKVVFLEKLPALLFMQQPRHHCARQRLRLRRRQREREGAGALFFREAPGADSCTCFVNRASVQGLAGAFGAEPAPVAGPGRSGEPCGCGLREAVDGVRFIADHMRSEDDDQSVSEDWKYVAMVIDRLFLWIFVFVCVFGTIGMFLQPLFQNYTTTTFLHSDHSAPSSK

Structure (SMILES) | effect on α4β2-nAChR mediated currents (peak current response, steady-state component) [1] | DA receptor characteristics in normal rats [2] | DA receptor characteristics in rats with unilateral nigral lesion [3] | acute desensitization of nicotine-induced currents ([1]; THB 30 μM, holding potentials −40 mV and −80 mV, FIG. 9A-9B) | effect on nicotinic response mediated by α4β2 subtype ([1]; THB 0.1 mM, nicotine 1.0 μM, FIG. 6B (1)) | effect on peak (Ip) and steady-state (Is) components of nicotinic responses at different THB concentrations ([1]; THB 1.0, 10, 100 μM, nicotine 1.0 μM, FIG. 7A-7C) | voltage dependence of suppression of nicotinic response ([1]; depending on holding potential VH) | effect on nicotinic response mediated by α4α4 subtype [4] | effect on nicotinic response mediated by α7 subtype [5] | effect on D1-type and D2-type DA receptor binding [6]
COc1cc2c(cc1O)[C@@H]1Cc3ccc(O)c(OC)c3CN1CC2 [l-SPD, l-Stepholidine] | inhibition of nAChR function | characteristics of D2 receptor antagonist | acts on D1 receptors as an agonist | – | – | – | – | – | – | –
COc1ccc2c(c1OC)CN1CCc3cc4c(cc3C1C2)OCO4 (stereo not drawn) [THB, Tetrahydroberberine] | inhibition of nAChR function | – | – | accelerates acute desensitization | inhibition of each nAChR subtype function | concentration-dependent inhibition | suppressed nicotinic response depending on VH | inhibition of each nAChR subtype function | inhibitory effect occurs more predominantly in α7-nAChRs | equipotent effect
COc1cc2c(cc1OC)[C@@H]1Cc3ccc(OC)c(OC)c3CN1CC2 [l-THP, l-Tetrahydropalmatine] | inhibition of nAChR function | – | – | – | – | – | – | – | – | –

— patent publication US8507017B2, “Method for decreasing nicotine and other substance use in humans” (Arizona Health Consulting Group, LLC, priority 2003, dated 2013)
